Results reported in US20240390301A1, “COMBINATIONS OF PERIPHERAL 5-HT2A RECEPTOR ANTAGONISTS AND CENTRAL 5-HT2A RECEPTOR AGONISTS” (priority 2021, published 2024).
“And” between values parts separate entries of the source, which are not always exact repeats. Identical values can stand only once. Like-named read-outs stand apart in the source and are kept apart here.

Key:
in vivo [1] = assay: in vivo
Protocol: The pharmacokinetics of peripheral 5-HT2A antagonists were studied in the plasma (Tables 11 and 12) and brains (Table 13 and 14) of rats after subcutaneous (SC) dosing. The results were used to interpret the in vivo pharmacological results.
Animals. Male Sprague Dawley rats, aged 8-12 weeks. were used in these studies. Four rats were housed in each cage. […] Temperature and humidity were recorded by an auto-controlled data logger system. All animals were provided laboratory rodent diet and were fasted for 4 h pre-dose and 2 h post-dose. Reverse osmosis water treated with ultraviolet light was provided ad libitum. Animals were randomly assigned to treatment groups.
Drugs and Drug Administration. Test compounds were prepared as described above or commercially obtained. They were administered subcutaneously (SC) at a dose of 1 or 10 mg/kg (as indicated, calculated based on the free base) and at a volume of 5 mL/kg body weight.
Sample Collection and Bioanalysis. […] SC. […] For both studies, immediately after blood collection, plasma was harvested by centrifugation at 4,000 rpm for 10 min at 4° C. and samples were stored at −70±10° C. until bioanalysis. Following blood collection, animals were immediately sacrificed, the abdominal vena-cava was cut open, and the whole body was perfused from the heart using 10 mL of normal saline, and brain samples were collected from all animals. After isolation, brain samples were rinsed three times in ice-cold normal saline (for 5-10 seconds/rinse using ˜5-10 mL normal saline in disposable petri dish for each rinse) and dried on blotting paper. Brain samples were homogenized using ice-cold phosphate-buffered saline (pH 7.4). Total homogenate volume was three times the tissue weight. All homogenates were stored at −70±10° C. until bioanalysis. For bioanalysis, 25 μL aliquots of plasma/brain study samples or spiked plasma/brain calibration standards were added to individual pre-labeled micro-centrifuge tubes followed by 100 μL of an internal standard solution (glipizide, 500 ng/ml in acetonitrile) except for blanks, where 100 μL of acetonitrile was added. Samples were vortexed for 5 minutes and then centrifuged for 10 minutes at 4,000 rpm at 4° C. Following centrifugation, 100 μL of each clear supernatant was transferred to a 96-well plate and analyzed with a fit-for-purpose LC-MS/MS method, with authentic samples of each analyte used for calibration and identification.

5-HT2A receptor = biological target: T1, 5-HT2A receptor (Homo sapiens, UniProt P28223); assay: FLIPR Ca2+ flux functional assay, antagonist activity at 5-HT2A; type: cell-based; conditions: for 5-HT2A % Inh @ Max Dose: at max dose
T1 construct: WuXi AppTec (Hong Kong) Limited (contract laboratory that ran the assay)
T1 sequence (P28223 whole entry): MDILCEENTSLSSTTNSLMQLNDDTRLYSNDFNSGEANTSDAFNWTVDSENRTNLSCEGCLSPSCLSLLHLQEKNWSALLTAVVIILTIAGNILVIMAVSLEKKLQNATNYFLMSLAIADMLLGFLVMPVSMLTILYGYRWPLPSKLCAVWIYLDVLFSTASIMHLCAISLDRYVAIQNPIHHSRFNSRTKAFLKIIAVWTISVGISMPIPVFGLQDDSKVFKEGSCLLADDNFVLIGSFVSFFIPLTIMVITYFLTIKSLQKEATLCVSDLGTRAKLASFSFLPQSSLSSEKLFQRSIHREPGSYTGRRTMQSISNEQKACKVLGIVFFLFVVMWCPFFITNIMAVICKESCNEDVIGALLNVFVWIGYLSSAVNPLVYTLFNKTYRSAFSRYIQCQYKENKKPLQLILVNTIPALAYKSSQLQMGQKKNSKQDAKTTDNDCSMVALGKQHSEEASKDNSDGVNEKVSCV
Protocol: Key peripheral 5-HT2A receptors antagonists were tested for antagonist activity at several serotonin (5-HT) receptor subtypes (5-HT2A and 5-HT2B) using Ca^2+ flux functional assays, with the results summarized in Table 3. […] The ability to block peripheral 5-HT2B receptors in addition to 5-HT2A receptors is advantageous in the context of the present disclosure, as such blockade is likely to mitigate the potential cardiac valvulopathy induced by 5-HT2B receptor agonists. This is expected to be a potential side effect of many classical psychedelics, which activate 5-HT2B receptors as a secondary target. Accordingly, xylamidine and BW501C67 are preferred over Compound 14a for use in combination with 5-HT2A receptor agonists that also activate 5-HT2B receptors, since they also block this important off target. When taken together with the binding data presented above, xylamidine and BW501C67 appear to be potent pan-antagonists for 5-HT2-type receptors, whereas Compound 14a is selective for 5-HT2A receptors specifically.
Functional Assays at 5-HT2A and 5-HT2B. Antagonist activity at 5-HT2A and 5-HT2B receptors was determined using a FLIPR Ca^2+ flux assay at WuXi AppTec (Hong Kong) Limited according to their standard protocols. Briefly, stably transfected HEK293 cells expressing the receptor of interest were grown and plated in a 384 well plate and incubated at 37° C. and 5% CO2 overnight. This was combined with a fluorescent dye (Fluo-4 Direct™) to make a final assay concentration of 2.5 mM. Compounds were diluted 1:3.16 for 10 points and 750 nL was added to a 384 well compound plate using ECHO along with 30 μL assay buffer. The fluorescent dye was then added to the assay plate along with assay buffer to a final volume of 40 μL. The cell plate was incubated for 50 min at 37° C. and 5% CO2 and placed into the FLIPR Tetra along with the compound plate. 10 μL of references and compounds were then transferred from the compound plate into the cell plate and the fluorescent signal was read. Next, 10 μL of a 6× solution of 5-carboxamidotryptamine (5-CT) at the calculated EC80 was added and the fluorescent signal read again. Finally, the Max-Min signal was calculated for the runs with and without agonist.

in vivo [2] = type: in vivo, rat; conditions: for Peripheral restriction / brain penetration: from free brain:free plasma ratios; for Kp at 0.167 h / Kp at 0.5 h: male, Sprague Dawley, rat, in vivo; for Kp at 0.167 h: read-out: Free Brain:Free Plasma (0.167 h); for Kp at 0.5 h: read-out: Free Brain:Free Plasma (0.5 h)
Protocol: The ratio of free brain concentration to free plasma concentration was calculated at 0.167 h and 0.5 h post administration for each compound using the data presented in the above examples and the following formula.
A smaller value for the free brain: free plasma ratio indicates greater peripheral restriction and therefore, better suitability for the methods of the present disclosure.

[3] = Metabolic stability in human liver microsomes; type: in vitro ADME; conditions: for half-life at 1 μM / microsomal CLint at 1 μM: both sexes, human, microsomes, pH 7.4
Protocol: HLM Stability. Pooled HLM from adult male and female donors (Corning 452117) were used. Microsomal incubations were carried out in multi-well plates. Liver microsomal incubation medium consisted of PBS (100 mM, pH 7.4), MgCl2 (1 mM), and NADPH (1 mM), with 0.50 mg of liver microsomal protein per mL. Control incubations were performed by replacing the NADPH-cofactor system with PBS. Test compounds (1 μM, final solvent concentration 1.0%) were incubated with microsomes at 37° C. with constant shaking. Six time points over 60 minutes were analyzed, with 60 μL aliquots of the reaction mixture being drawn at each time point. The reaction aliquots were stopped by adding 180 μL of cold (4° C.) acetonitrile containing 200 ng/mL tolbutamide and 200 ng/ml labetalol as internal standards (IS), followed by shaking for 10 minutes, and then protein sedimentation by centrifugation at 4,000 rpm for 20 minutes at 4° C. Supernatant samples (80 μL) were diluted with water (240 μL) and analyzed for parent compound remaining using a fit-for-purpose liquid chromatography-tandem mass spectrometry (LC-MS/MS) method.
Data Analysis. The elimination constant (kel), half-life (t1/2), and intrinsic clearance (CLint) were determined in a plot of […] versus time, using linear regression analysis.

[4] = male, Sprague Dawley, rat, in vivo, sc, 1 mg/kg
[5] = HLM, 1 μM, 0.50 mg protein per mL, NADPH
[6] = male, Sprague Dawley, rat, in vivo, sc, 10 mg/kg
[7] = antagonist activity, Ca2+ flux, HEK293 cells, agonist at EC80, read-out: 5-HT2A IC50
[8] = calculated using 10 mg/kg PK data

| Structure (SMILES) | Cmax (in vivo [1]; [4]) | concentration at 0.167 h (in vivo [1]; [4]) | concentration at 0.5 h (in vivo [1]; [4]) | half-life (in vivo [1]; [4]) [min] | 5-HT2A % Inh @ Max Dose (5-HT2A receptor; antagonist activity, Ca2+ flux) [%] | Peripheral restriction / brain penetration (in vivo [2]) | Kp at 0.167 h (in vivo [2]; calculated using 1 mg/kg data) | Kp at 0.5 h (in vivo [2]; calculated using 1 mg/kg data) | Metabolic stability in HLM [3] | half-life at 1 μM [3, 5] [min] | microsomal CLint at 1 μM [3, 5] [µL/min/mg] | concentration at 0.167 h (in vivo [1]; [6]) | concentration at 0.5 h (in vivo [1]; [6]) | IC50 (5-HT2A receptor; [7]) [nM] | Kp at 0.167 h (in vivo [2]; [8]) | Kp at 0.5 h (in vivo [2]; [8]) | also measured |
| --- | --- | --- | --- | --- | --- | --- | --- | --- | --- | --- | --- | --- | --- | --- | --- | --- | --- |
| CC(CNC(=N)CNc1ccccc1)Oc1cccc(Cl)c1.O=CO (stereo not shown) [BW501C67, N-(2-(3-chlorophenoxy)propyl)-2-(phenylamino)acetimidamide formate] | 91.4 ng/mL and 32.3 ng/g | 91.4 ng/mL and 10.4 ng/g | 73.8 ng/mL and 13.6 ng/g | 187 | 100.13 | by far the most peripherally restricted compound | 0.0032 | 0.0052 | poor metabolic stability | 7.2 | 192 | – | – | – | – | – | AUC(0-t) (in vivo [1]; male, Sprague Dawley, rat, in vivo, sc, 1 mg/kg, AUC0-last (h*ng/mL), brain, 1 mg/kg SC): 436 ng·h/mL; AUC(0-t) (in vivo [1]; male, Sprague Dawley, rat, in vivo, sc, 1 mg/kg, AUC0-last (h*ng/mL), plasma, 1 mg/kg SC): 277 ng·h/mL; Tmax (in vivo [1]; male, Sprague Dawley, rat, in vivo, sc, 1 mg/kg, Tmax (h), brain, 1 mg/kg SC): 240 min; Tmax (in vivo [1]; male, Sprague Dawley, rat, in vivo, sc, 1 mg/kg, Tmax (h), plasma, 1 mg/kg SC): 10.2 min; IC50 (5-HT2A receptor): 14.5 nM |
| CC(C)COc1ccc(CNC(=O)N(Cc2ccc(F)cc2)C2CCN(C(=O)CC[C@H](N)C(=O)O)CC2)cc1 [Compound 14a, (S)-2-amino-5-(4-(1-(4-fluorobenzyl)-3-(4-isobutoxybenzyl)ureido)piperidin-1-yl)-5-oxopentanoic acid] | 271 ng/mL | 265 ng/mL | 271 ng/mL | 51 | 100.01 | good peripheral restriction | 0 | 0 | highly stable | > 145 | < 9.6 | 966 ng/mL and 35.6 ng/g | 1530 ng/mL and 40.7 ng/g | 297 | 0.048 | 0.035 | AUC(0-t) (in vivo [1]; [4]): 434 ng·h/mL; Tmax (in vivo [1]; [4]): 30 min |
| COc1cccc(CCc2ccccc2OCC(CN(C)C)OC(=O)CCC(=O)O)c1 (stereo not shown) [sarpogrelate] | – | – | – | – | – | substantial brain penetration | – | – | – | – | – | 2130 ng/mL and 28.9 ng/g | 2990 ng/mL and 31.8 ng/g | – | 0.37 | 0.29 | – |
| COc1cccc(C(=O)Nc2ccc(OCCN3CCOCC3)c(-c3ccnn3C)c2)c1 [temanogrel] | – | – | – | – | – | substantial brain penetration | – | – | – | – | – | 411 ng/mL and 113 ng/g | 518 ng/mL and 148 ng/g | – | 0.33 | 0.34 | – |
| COc1cccc(OC(C)CNC(=N)Cc2cccc(C)c2)c1.O=C(O)C(F)(F)F (stereo not shown) [xylamidine, N-(2-(3-methoxyphenoxy)propyl)-2-(m-tolyl) acetimidamide trifluoroacetate] | – | – | – | – | 99.81 | – | – | – | poor metabolic stability | – | – | – | – | 24 | – | – | Tmax (in vivo [1]; brain, 1 mg/kg SC): 60 min; t1/2 (in vivo [1]; brain, 1 mg/kg SC): 289 min; 0.167 h (ng/g) brain concentration (in vivo [1]; brain, 1 mg/kg SC, 0.167 h): 14.4 ng/g; 0.5 h (ng/g) brain concentration (in vivo [1]; brain, 1 mg/kg SC, 0.5 h): 35.4 ng/g; Mean brain concentration 0.167 h (in vivo [1]; brain, 10 mg/kg SC, 0.167 h): 100.8 ng/g; Mean brain concentration 0.5 h (in vivo [1]; brain, 10 mg/kg SC, 0.5 h): 60.7 ng/g; AUC0-last (in vivo [1]; plasma, 1 mg/kg SC): 343.6 ng·h/mL; Cmax (in vivo [1]; plasma, 1 mg/kg SC): 155.4 ng/mL; Tmax (in vivo [1]; plasma, 1 mg/kg SC): 10.2 min; t1/2 (in vivo [1]; plasma, 1 mg/kg SC): 103 min; 0.167 h (ng/mL) plasma concentration (in vivo [1]; plasma, 1 mg/kg SC, 0.167 h): 155.4 ng/mL; 0.5 h (ng/mL) plasma concentration (in vivo [1]; plasma, 1 mg/kg SC, 0.5 h): 133.4 ng/mL; Mean plasma concentration 0.167 h (in vivo [1]; plasma, 10 mg/kg SC, 0.167 h): 1099.2 ng/mL; Mean plasma concentration 0.5 h (in vivo [1]; plasma, 10 mg/kg SC, 0.5 h): 670.0 ng/mL; Free Brain:Free Plasma (0.167 h) (in vivo [2]; calculated using 1 mg/kg data): 0.018; Free Brain:Free Plasma (0.5 h) (in vivo [2]; calculated using 1 mg/kg data): 0.052; Free Brain:Free Plasma (0.167 h) (in vivo [2]; [8]): 0.018; Free Brain:Free Plasma (0.5 h) (in vivo [2]; [8]): 0.018; Clint [3, 5]: 448.6 µL/min/mg; t1/2 [3, 5]: 3.1 min |
